# Assay results from US9591978B2, “Methods and compositions for pre-screening patients for treatment with noribogaine” (DemeRX, Inc., priority 2014, dated 2017).
# “Also recorded” adds a separate entry of the source.
# Legend:
# [1] = Pharmacokinetics of noribogaine in healthy volunteers (plasma, LCMSMS); details: for AUC0-216 / AUC0-∞ / Cmax / Tmax / t1/2 / CL/F: healthy male volunteers, fasted, n = 6, mean (SD); for mean AUC/24 hr / mean AUC/24: fasting conditions
# [2] = tested on: opioid-dependent participants; assay: Time to resumption of opioid substitution treatment (OST); assay type: in vivo, human; details: for therapeutic response: methadone addicted patients
# [3] = tested on: healthy, drug-free male volunteers; assay: Safety and tolerability of noribogaine in healthy humans; assay type: in vivo, human
# Protocol: (§1) Pulse oximetry and capnography data were collected continuously using a GE Carescape B650 monitoring system from 2 hours prior to dosing and until six hours after dosing, and thereafter at 12, 24, 48 and 72 hours post-dosing. […] Pupillary miosis was assessed by pupillometry.
# (§2) Safety and tolerability of noribogaine were tested in the group of volunteers from Example 1. […] Safety evaluations included clinical monitoring, recording of adverse events (AEs), safety laboratory tests, vital signs, ECG telemetry from −2 h to 6 h after dosing, and 12-lead electrocardiograms (ECGs) up to 216 hours post-dosing.
# [4] = tested on: opioid-dependent participants; assay: QT interval prolongation in opioid-dependent patients; assay type: in vivo, human
# Protocol: Patients' QT intervals were evaluated at regular time points throughout the study.
# [5] = tested on: healthy, drug-free male volunteers; assay: Pupillometry (pupillary miosis) in healthy volunteers; assay type: in vivo, human
# Protocol: as §1
# Summary statistics (means, standard deviations, and coefficients of variation) were determined for each dose group for safety laboratory test data, ECG and pharmacokinetic parameters, and pharmacodynamic variables. Categorical variables were analysed using counts and percentages. Dose-proportionality of AUC and Cmax was assessed using linear regression. The effect of dose on pharmacodynamic parameter values over time was assessed using two-factor analysis of variance (ANOVA). Pairwise comparisons (with Tukey-Kramer adjustment) between each dose group to the placebo were conducted at each time point using the least squares estimates obtained from the ANOVA, using SAS Proc Mixed (SAS ver 6.0).
# [6] = tested on: healthy, drug-free male volunteers; assay: Cold pressor test (analgesic effect) in healthy volunteers; assay type: in vivo, human
# Protocol: Analgesic effect was assessed based on duration of hand immersion in ice water and on visual analog scale (VAS) pain scores upon hand removal from the water bath.
# as §2
# [7] = Pharmacokinetics in opioid-dependent patients (Phase IB study); details: 60-180 mg
# [8] = tested on: opioid-dependent participants; assay: Opiate withdrawal scales (COWS, SOWS, OOWS); assay type: in vivo, human; details: first six hours following dosing
# Protocol: Patients were evaluated based on the Clinical Opiate Withdrawal Scale (COWS), Subjective Opiate Withdrawal Scale (SOWS), and Objective Opiate Withdrawal Scale (OOWS) scoring systems over the period of time between administration of noribogaine (or placebo) until resumption of OST. These scales are outlined in Guidelines for the Psychosocially Assisted Pharmacological Treatment of Opioid Dependence, World Health Organization, Geneva (2009), Annex 10, which is incorporated herein by reference in its entirety. The scales measure the intensity of withdrawal symptoms, based on clinical, subjective, and objective indicia.
# [9] = tested on: opioid-dependent participants; assay: Treatment emergent adverse events in opioid-dependent participants
# [10] = 30 mg and 60 mg noribogaine dose groups
# [11] = after adjusting for baseline, p>0.9
# [12] = opioid-dependent participants, 60, 120, 180 mg
# [13] = opioid-dependent patients, single 60 mg noribogaine dose, N = 6
# [14] = opioid-dependent patients, single 120 mg noribogaine dose, N = 6
# [15] = opioid-dependent patients, single 180 mg noribogaine dose, N = 6
smiles,measurement,setting,value
"CC[C@H]1C[C@@H]2C[C@H]3c4[nH]c5ccc(OC6OC(C(=O)O)C(O)C(O)C6O)cc5c4CCN(C2)[C@@H]13 (some centres unmarked) [Noribogaine glucuronide, noribogaine glucuronide]",mean half-life in plasma,[1]; [10],21 to 23 h
same,time by which detected in plasma of all subjects,[1]; [10],≤ 0.75 h
same,time of peak concentrations after noribogaine dosing,[1]; [10],3 to 4 h
same,proportion of Cmax and AUC relative to noribogaine,"[1]; both dose groups (30 mg, 60 mg)",3-4%
same,AUC0-216,[1]; single oral 30 mg noribogaine,25.7 (9.1) ng · hr/ml
same,AUC0-∞,[1]; single oral 30 mg noribogaine,25.8 (9.3) ng · hr/ml
same,Cmax,[1]; single oral 30 mg noribogaine,1.8 (0.6) ng/ml
same,Tmax,[1]; single oral 30 mg noribogaine,3.0 (0.6) hr
same,t1/2,[1]; single oral 30 mg noribogaine,20.6 (4.9) hr
same,AUC0-216,[1]; single oral 60 mg noribogaine,65.0 (21.5) ng · hr/ml
same,AUC0-∞,[1]; single oral 60 mg noribogaine,67.1 (21.9) ng · hr/ml
same,Cmax,[1]; single oral 60 mg noribogaine,4.1 (1.2) ng/ml
same,Tmax,[1]; single oral 60 mg noribogaine,3.8 (1.2) hr
same,t1/2,[1]; single oral 60 mg noribogaine,23.1 (3.0) hr
CC[C@H]1CC2C[C@H]3c4[nH]c5ccc(O)cc5c4CCN(C2)C13 [noribogaine],time to resumption of opioid substitution therapy compared with 60 mg,[2]; 120 mg,significantly longer
same,time to resumption of OST compared with untreated patients or 60 mg noribogaine,[2]; 180 mg,still longer
same,therapeutic response,[2]; single 60 mg dosing,generally does not provide a meaningful therapeutic response
same,therapeutic response,[2]; single 120 mg dosing,generally provides a meaningful therapeutic response
same,average time to resumption of opioids,[2]; single 120 mg dose,greater than 20 hours
same,adverse events reported,"[3]; 3 mg dose group, by two subjects",five
same,adverse events reported,"[3]; 10 mg dose group, single subject",one
same,adverse events reported,"[3]; 30 mg dose group, single subject",one
same,intensity of adverse events,"[3]; all adverse events of the study, all resolved prior to study completion",mild-moderate
same,Adverse events: Mild,"[3]; healthy volunteers, 3 mg",Dizziness; also recorded: Epistaxis; also recorded: Headache; also recorded: Back pain
same,Adverse events: Moderate,"[3]; healthy volunteers, 3 mg",Headache
same,Adverse events: Mild,"[3]; healthy volunteers, 10 mg",Headache
same,Adverse events: Mild,"[3]; healthy volunteers, 30 mg",Headache
same,"oximetry, capnography, respiratory rate","[3]; healthy volunteers, 3-60 mg","no changes in oximetry or capnography, or changes in respiratory rate"
same,vital signs and safety laboratory tests,"[3]; healthy volunteers, 3-60 mg",no changes in vital signs or safety laboratory tests of note
same,QTcF values,"[3]; healthy volunteers, at any time",≤ 500 ms
same,increase in QTcF,"[3]; one subject dosed with 10 mg, single increase at 24 hours post-dosing",> 60 ms
same,QT interval prolongation (ΔQTcl) versus dose and serum concentration,"[4]; 60, 120, 180 mg, first 24 hours post administration",dose-dependent increase in QT interval prolongation
same,relation of QT interval prolongation to dose,[4]; doubling the dose gives about a doubling of the prolongation,linear pattern
same,QT interval in some patients,[4]; patients receiving 120 mg,greater than 500 ms
same,QT interval prolongation in some patients,[4]; patients receiving 120 mg,greater than 50 ms
same,average QT interval prolongation,[4]; patients receiving 120 mg,approximately 38 ms
same,"pupil diameter, each dose group vs placebo by ANOVA",[5]; [11],no statistically significant differences
same,pupillary constriction,"[5]; healthy volunteers, 3-60 mg single oral dose",no evidence of pupillary constriction
same,"VAS pain scores, each dose group vs placebo by ANOVA","[6]; after adjusting for baseline, p=0.17",no statistically significant differences
same,"duration of hand immersion, each dose group vs placebo by ANOVA",[6]; [11],no statistically significant differences
same,analgesic effect in the cold pressor test,"[6]; healthy volunteers, 3-60 mg single oral dose, 1° C. water",no analgesic effect
same,maximum serum concentration (Cmax) versus dose,[7],increased in a dose-dependent manner
same,"withdrawal symptoms (COWS, OOWS, SOWS)",[8]; 120 mg,generally experienced fewer withdrawal symptoms than the other patients
same,"withdrawal symptoms compared with placebo (COWS, OOWS, SOWS)","[8]; 60, 120, 180 mg",Patients administered placebo generally experienced more withdrawal symptoms than patients who were administered noribogaine
same,CL/F,[1]; single oral 3 mg noribogaine,41.4 (7.0) L/h
same,CL/F,[1]; single oral 10 mg noribogaine,42.3 (12.0) L/h
same,CL/F,[1]; single oral 30 mg noribogaine,46.9 (16.4) L/h
same,CL/F,[1]; single oral 60 mg noribogaine,34.0 (11.4) L/h
same,dose-proportionality of Cmax and AUC,"[1]; healthy volunteers, 3-60 mg",increased linearly with dose
same,time of peak concentrations after oral dosing,"[1]; healthy volunteers, across 3-60 mg dose groups",2 to 3 h
same,mean half-life estimates,"[1]; healthy volunteers, across dose groups",28 to 50 h
same,mean AUC/24 hr,[1]; single dose of 3 mg noribogaine free base,3.1 ng/mL
same,mean AUC/24 hr,[1]; single dose of 10 mg noribogaine free base,10.6 ng/mL
same,mean AUC/24,[1]; single dose of 30 mg noribogaine free base,29.2 ng/mL
same,mean AUC/24,[1]; single dose of 60 mg noribogaine free base,61 ng/mL
same,headaches,[9]; 60 mg noribogaine treatment group,frequent
same,headaches,[9]; 120 mg dose group,attenuated
same,headaches,[9]; 180 mg dose group,attenuated
same,adverse effects observed,[9]; [12],Few adverse effects
same,hallucinatory effects,[9]; [12],no hallucinatory effects
same,Treatment emergent adverse events: Catheter Site Infection,[9]; [13],0
same,Treatment emergent adverse events: Catheter Site Pain,[9]; [13],0
same,Treatment emergent adverse events: Catheter Site Related Reaction,[9]; [13],0
same,Treatment emergent adverse events: Cellulitis,[9]; [13],0
same,Treatment emergent adverse events: Diarrhoea,[9]; [13],0
same,Treatment emergent adverse events: Dry Mouth,[9]; [13],0
same,Treatment emergent adverse events: Ear and Labyrinth Disorders,[9]; [13],0
same,Treatment emergent adverse events: Epistaxis,[9]; [13],0
same,Treatment emergent adverse events: Euphoric Mood,[9]; [13],0
same,Treatment emergent adverse events: General Disorders and Administration Site Conditions,[9]; [13],0
same,Treatment emergent adverse events: Hyperaesthesia,[9]; [13],0
same,Treatment emergent adverse events: Infections and Infestations,[9]; [13],0
same,Treatment emergent adverse events: Limb Discomfort,[9]; [13],0
same,Treatment emergent adverse events: Malaise,[9]; [13],0
same,Treatment emergent adverse events: Nausea,[9]; [13],0
same,Treatment emergent adverse events: Oropharyngeal Pain,[9]; [13],0
same,Treatment emergent adverse events: Pseudoparalysis,[9]; [13],0
same,"Treatment emergent adverse events: Respiratory, Thoracic and Mediastinal Disorders",[9]; [13],0
same,Treatment emergent adverse events: Rhinorrhoea,[9]; [13],0
same,Treatment emergent adverse events: Skin Discomfort,[9]; [13],0
same,Treatment emergent adverse events: Skin Irritation,[9]; [13],0
same,Treatment emergent adverse events: Skin and Subcutaneous Tissue Disorders,[9]; [13],0
same,Treatment emergent adverse events: Somnoience,[9]; [13],0
same,Treatment emergent adverse events: Tinnitus,[9]; [13],0
same,Treatment emergent adverse events: Tremor,[9]; [13],0
same,Treatment emergent adverse events: Urinary Tract Infection,[9]; [13],0
same,Treatment emergent adverse events: Vomiting,[9]; [13],0
same,Treatment emergent adverse events: Back Pain,[9]; [14],0
same,Treatment emergent adverse events: Catheter Site Infection,[9]; [14],0
same,Treatment emergent adverse events: Catheter Site Related Reaction,[9]; [14],0
same,Treatment emergent adverse events: Depressed Mood,[9]; [14],0
same,Treatment emergent adverse events: Dry Eye,[9]; [14],0
same,Treatment emergent adverse events: Dyspepsia,[9]; [14],0
same,Treatment emergent adverse events: Euphoric Mood,[9]; [14],0
same,Treatment emergent adverse events: Limb Discomfort,[9]; [14],0
same,Treatment emergent adverse events: Malaise,[9]; [14],0
same,Treatment emergent adverse events: Musculoskeletal and Connective Tissue Disorders,[9]; [14],0
same,Treatment emergent adverse events: Psychiatric Disorders,[9]; [14],0
same,Treatment emergent adverse events: Somnoience,[9]; [14],0
same,Treatment emergent adverse events: Urinary Tract Infection,[9]; [14],0
same,Treatment emergent adverse events: Catheter Site Infection,[9]; [15],0
same,Treatment emergent adverse events: Catheter Site Pain,[9]; [15],0
same,Treatment emergent adverse events: Depressed Mood,[9]; [15],0
same,Treatment emergent adverse events: Diarrhoea,[9]; [15],0
same,Treatment emergent adverse events: Dry Eye,[9]; [15],0
same,Treatment emergent adverse events: Dyspepsia,[9]; [15],0
same,Treatment emergent adverse events: Ear and Labyrinth Disorders,[9]; [15],0
same,Treatment emergent adverse events: Epistaxis,[9]; [15],0
same,Treatment emergent adverse events: Euphoric Mood,[9]; [15],0
same,Treatment emergent adverse events: Hyperaesthesia,[9]; [15],0
same,Treatment emergent adverse events: Malaise,[9]; [15],0
same,Treatment emergent adverse events: Oropharyngeal Pain,[9]; [15],0
same,Treatment emergent adverse events: Pseudoparalysis,[9]; [15],0
same,Treatment emergent adverse events: Psychiatric Disorders,[9]; [15],0
same,"Treatment emergent adverse events: Respiratory, Thoracic and Mediastinal Disorders",[9]; [15],0
same,Treatment emergent adverse events: Rhinorrhoea,[9]; [15],0
same,Treatment emergent adverse events: Skin Discomfort,[9]; [15],0
same,Treatment emergent adverse events: Skin Irritation,[9]; [15],0
same,Treatment emergent adverse events: Skin and Subcutaneous Tissue Disorders,[9]; [15],0
same,Treatment emergent adverse events: Somnoience,[9]; [15],0
same,Treatment emergent adverse events: Tinnitus,[9]; [15],0
same,Treatment emergent adverse events: Tremor,[9]; [15],0
